The results in this text go back to US9605002B2, “5,5-heteroaromatic anti-infective compounds” (priority 2012, dated 2017).

For assay [1], the system named is VERO kidney epithelial cells. Kind of assay: VERO toxicity assessment. The settings on record: Chlorocebus sabaeus, Vero, read-out: VERO: IC50.
Assay [2] concerns M. tuberculosis (Mtb) H37Rv. In words: Microplate Alamar Blue Assay (MABA), GAS media, replicating Mtb. It is filed as cell-based, Mycobacterium tuberculosis. To be noted: Mycobacterium tuberculosis; GAS (glycerol-alanine-salt) media, replicating H37Rv; read-out: GAS media: replicating H37Rv Mtb: MIC 90.
Assay [3] has as its system M. tuberculosis (Mtb) H37Rv. In words: Microplate Alamar Blue Assay (MABA), 7H12 media, replicating Mtb. The settings on record: Mycobacterium tuberculosis, 7H12 media (no glycerol), read-out: 7H12 media: Replicating H37Rv Mtb: MIC 90. Type of assay: cell-based.

≈ marks a conversion by molar mass, not a printed value. Some results are limits rather than exact numbers.

For the compound `Cc1cn2c(C(=O)NCc3ccc(N4CCOCC4)c(F)c3)c(C)nc2s1` [ND-020034], the half-inhibitory concentration (IC50) in assay [1] was less than 32 µM. Moreover, the MIC90 was less than 2 µM in assay [2] and 2 to 10 µM (≈ 0.777 to 3.88 µg/mL) in assay [3].

On to `Cc1cn2c(C(=O)NCc3ccc(Oc4ccc(C(F)(F)F)cc4)cc3)c(C)nc2s1` [ND-020055], for which the IC50 in assay [1] fell in the range of 20 to 32 µM. Also, the MIC90 in assay [2] and in assay [3] was less than 2 µM in each case.

On to `Cc1cn2c(C(=O)NCc3cc(Cl)cc(Cl)c3)c(C)nc2s1` [ND-020005], for which the IC50 in assay [1] was less than 32 µM. The MIC90 in assay [2] and in assay [3] was less than 2 µM each time.

On to `Cc1cn2c(C(=O)NCc3ccc4c(ccn4C)c3)c(C(F)(F)F)nc2s1` [ND-020080], for which, in assay [1], the IC50 was less than 32 µM. Besides, the MIC90 in assay [2] and in assay [3] was less than 2 µM each time.

With `CCc1nc2sc(C)cn2c1C(=O)O` [ND-009745], in assay [1], the IC50 is less than 32 µM. The MIC90 in assay [2] and in assay [3] was less than 32 µM in each case.

As for `CCc1nc2sc(Cl)cn2c1C(=O)NCc1ccc(C(F)(F)F)cc1` [ND-020011], the half-inhibitory concentration (IC50) in assay [1] was less than 32 µM. For the same compound, the MIC90 is less than 2 µM in assay [2] and 2 to 10 µM (≈ 0.776 to 3.88 µg/mL) in assay [3].

For the compound `Cc1cn2c(C(=O)NCc3ccc4nc(-c5ccc(F)cc5)oc4c3)c(C)nc2s1` [ND-020066], the IC50 in assay [1] fell in the range of 20 to 32 µM. The results for the MIC90 in assay [2] and in assay [3] were less than 2 µM and 2 to 10 µM (≈ 0.841 to 4.2 µg/mL), respectively.

`Cc1cn2c(C(=O)NCc3ccc(N4CCCC4)cc3)c(C)nc2s1` [ND-020071]: in assay [1], the IC50 is 20 to 32 µM. The MIC90 in assay [2] and in assay [3] was less than 2 µM throughout.

Take `Cc1cn2c(C(=O)NCc3cccc(N4CCC(=O)CC4)c3)c(C)nc2s1` [ND-020072]: the half-inhibitory concentration (IC50) in assay [1] was less than 32 µM. Also, the MIC90 in assay [2] and in assay [3] was less than 2 µM each time.

`CCc1nc2sc(Cl)cn2c1C(=O)NCc1ccc(Oc2ccc(Cl)cc2)cc1` [ND-020053]: the 50% inhibitory concentration (IC50) in assay [1] was in the range of 20 to 32 µM. For the same compound, the MIC90 in assay [2] and in assay [3] was less than 2 µM throughout.

Take `Cc1nc2sc(Cl)cn2c1C(=O)NCc1ccc2c(c1)OCC2` [ND-020062]: the IC50 in assay [1] was less than 32 µM. For the same compound, the MIC90 in assay [2] and in assay [3] was less than 2 µM each time.

`COc1ccc(CNC(=O)c2c(C)nc3sc(C)cn23)cc1` [ND-020027]: in assay [1], the half-inhibitory concentration (IC50) was less than 32 µM. Besides, the MIC90 in assay [2] and in assay [3] was less than 2 µM in each case.

As for `CCc1nc2sc(C)cn2c1C(=O)NCc1ccc(Oc2ccc(C(F)(F)F)cc2)cc1` [ND-020054], the 50% inhibitory concentration (IC50) in assay [1] fell in the range of 20 to 32 µM. Moreover, the MIC90 in assay [2] and in assay [3] was less than 2 µM throughout.

For the compound `Cc1nc2sc(C)c(C)n2c1C(=O)NCc1ccc(C(F)(F)F)cc1` [ND-020013], the IC50 in assay [1] was less than 32 µM. Besides, the MIC90 in assay [2] was 2 to 10 µM; in assay [3] it was 10 to 20 µM (≈ 3.67 to 7.35 µg/mL).

On to `Cc1cn2c(C(=O)NCc3ccc(N4CCC(=O)CC4)cc3)c(C)nc2s1` [ND-020070], for which the 50% inhibitory concentration (IC50) in assay [1] lay in the range of 20 to 32 µM. Moreover, the MIC90 in assay [2] is less than 2 µM; in assay [3] it was 2 to 10 µM (≈ 0.765 to 3.82 µg/mL).

Turning to `Cc1cn2c(C(=O)NCc3ccc(N(C)C)cc3)c(C)nc2s1` [ND-020020], the IC50 in assay [1] was less than 32 µM. For the same compound, the MIC90 in assay [2] and in assay [3] was less than 2 µM throughout.

On to `CNc1ccc(CNC(=O)c2c(C)nc3sc(C)cn23)cc1` [ND-020021], for which the IC50 in assay [1] was less than 32 µM. The MIC90 in assay [2] and in assay [3] was less than 2 µM each time.

Regarding `CCc1nc2sc(C)cn2c1C(=O)NCc1ccc2nc(-c3ccc(F)cc3)oc2c1` [ND-020067], in assay [1], the IC50 fell in the range of 20 to 32 µM. Further, the results for the MIC90 in assay [2] and in assay [3] were less than 2 µM and 2 to 10 µM (≈ 0.869 to 4.34 µg/mL), respectively.

As for `Cc1cn2c(C(=O)NCc3cccc(N4CCOCC4)c3)c(C)nc2s1` [ND-020032], the concentration for half-maximal inhibition (IC50) in assay [1] is less than 32 µM. The MIC90 in assay [2] was less than 2 µM; in assay [3], 2 to 10 µM (≈ 0.741 to 3.7 µg/mL).

With `Cc1cn2c(C(=O)NCc3ccc(N4CC(C)CC(C)C4)cc3)c(C)nc2s1` (stereo not drawn) [ND-020069], the IC50 in assay [1] lay in the range of 20 to 32 µM. Further, the MIC90 in assay [2] and in assay [3] was less than 2 µM each time.
